One experiment concerns gastric acid secretion. Description: Gastric antisecretory activity in the gastric fistula rat. The format is in vivo, Long Evans rats. The conditions noted are these: sc, relative to cimetidine.
The next experiment deals with T1, histamine H2-receptors (Cavia porcellus, UniProt P47747).
T1 construct: The spontaneously beating right atrium was dissected free from other tissues; from tissue; host or cells: isolated right atrium of male Hartley strain guinea pigs
Description: Histamine H2-receptor antagonism, isolated guinea pig right atria assay. The format is cell-based, Hartley strain guinea pigs. As to conditions: for Kb: Schild plot, 30-minute incubation, 95% confidence limits in parentheses, read-out: KB (dissociation constant); for Potency Ratio (cimetidine = 1.0): relative to cimetidine. The procedure: Subsequent investigations by Hughes and Coret, Proc. Soc. […] Black et al., Agents and Actions, 3, 133 (1973) and Brimblecombe et al., Fed. […] The present comparative studies were carried out using a modification of the procedure reported by Reinhardt et al., Agents and Actions, 4, 217 (1974).
The spontaneously beating right atrium was dissected free from other tissues and a silk thread (4-0) attached to each end. […] Atrial contractions were recorded isometrically by means of a Grass FT 0.03 force displacement transducer and recordings of contractile force and rate were made with a Beckman RP Dynograph.

The test system of a further experiment is peptic ulcer disease. The conditions noted are these: clinical evaluation, Gray et al., Lancet, 1, 8001 (1977); cited from earlier work.

The values that follow come from patent US4528377A, “Substituted 3,4-diamino-1,2,5-thiadiazoles having histamine H2 -receptor antagonist activity” (Bristol-Myers Company, priority 1983, dated 1985).

T1 sequence (P47747 whole entry): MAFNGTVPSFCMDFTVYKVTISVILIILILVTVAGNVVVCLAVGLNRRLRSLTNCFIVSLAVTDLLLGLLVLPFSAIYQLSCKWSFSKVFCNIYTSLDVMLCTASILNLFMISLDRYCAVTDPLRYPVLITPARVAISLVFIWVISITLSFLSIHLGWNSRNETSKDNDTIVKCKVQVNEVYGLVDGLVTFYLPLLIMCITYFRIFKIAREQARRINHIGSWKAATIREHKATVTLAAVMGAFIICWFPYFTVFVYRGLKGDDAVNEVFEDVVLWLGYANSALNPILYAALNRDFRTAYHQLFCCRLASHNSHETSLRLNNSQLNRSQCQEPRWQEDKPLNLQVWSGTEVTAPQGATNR

As for `Nc1nsnc1NCCCOc1cccc(CN2CCCCC2)c1` [Example 1, 3-Amino-4-[3-(3-piperidinomethylphenoxy)propylamino]-1,2,5-thiadiazole], the “Potency Ratio (cimetidine = 1.0)” value in the experiment on gastric acid secretion worked out at 37. Besides, at histamine H2-receptors, the Kb amounted to 3 nM and the “Potency Ratio (cimetidine = 1.0)” value came to 137.
In the same order, the values of `Nc1nsnc1NCCCOc1cccc(CN2CCCC2)c1` [Example 4, 3-Amino-4-[3-(3-pyrrolidinomethylphenoxy)propylamino]-1,2,5-thiadiazole] are 20, 4 nM and 102.
For `Cc1cc(CSCCNc2nsnc2N)sc1CN(C)C` [Example 3, 3-Amino-4-{2-[(5-dimethylaminomethyl-4-methyl-2-thienyl)methylthio]ethylamino}-1,2,5-thiadiazole], in the experiment on gastric acid secretion, the “Potency Ratio (cimetidine = 1.0)” value is recorded as ~ 7.
With `CN/C(=N/CCSCc1nc[nH]c1C)NC#N` [cimetidine], the “effect in treatment of peptic ulcer disease” value in the experiment with peptic ulcer disease is “effective therapeutic agent in the treatment of peptic ulcer disease”.
Regarding `CN(C)Cc1ccc(CSCCNc2nsnc2N)o1` [Example 2, 3-Amino-4-{2-[(5-dimethylaminomethyl-2-furyl)methylthio]ethylamino}-1,2,5-thiadiazole], in the experiment on gastric acid secretion, the “Potency Ratio (cimetidine = 1.0)” value worked out at 4.5.
